Results on six compounds are retold here after patent US4927959A, “Alprenolol derivatives” (Snow Brand Milk Products Co., Ltd., priority 1987, dated 1990).

Structures are written as SMILES. Structures can show the parent of a compound that is named as a salt.

Series [1] is described as follows: conversion test to the parent drug (alprenolol) in buffer solution having the pH of 7.4. The following applies: hydrochloride, Britton-Robinson buffer pH 7.4, 37° C.; for half-life: read-out: Half-life time (T 1/2) (converted); for 50% producing time of the parent drug (T' 1/2): unit assumed. In kind it is physicochemical. The procedure:
Assuming the absorption and distribution of the derivatives in vivo, conversion tests to the parent drug (alprenolol) were carried out by the following method in buffer solutions having the pH of 2, 4 and 7.4.
Britton-Robinson buffer solutions having the pH of 2, 4 and 7.4 were prepared. To each 800 μl of the buffer solution, 200 μl of an aqueous solution of each compound which had been adjusted to a concentration of 2 mg/ml were added. The resulting mixture was incubated at 37° C.
From each reaction mixture, 100 μl of sample were collected after 0, 1, 3, 5, 7 and 24 hours, diluted with a developer and subjected to high performance liquid chromatography (abbreviated as HPLC) under following conditions.
(d) Conditions of HPLC in the conversion test;
(d) Conditions of HPLC in the above conversion test;
As to the compounds (hydrochloride) described in the above (1)-(4), the conversion rate to the parent drug was examined in a buffer solution having the pH of 7.4 assuming blood pH. Table 1 illustrates half-life time (T 1/2) of each compound in the above buffer solution and 50% producing time (T' 1/2) of the parent drug in the same buffer solution.

Series [2] is described as follows: oral administration to dogs, plasma levels of the parent drug and AUC (improving effect on bioavailability). It counts as in vivo, Female beagle dogs. To be noted: beagle dogs; for relationship between dose and AUC (area under the plasma concentration curve) (FIG. 14): alprenolol hydrochloride 2-30 mg/kg, hydrochlorides of (1) and (2) equivalent to 10 and 20 mg/kg; for plasma concentration of the parent drug (FIG. 13): hydrochlorides, dose equivalent to 20 mg/kg of alprenolol hydrochloride, 0.5-6 hours, versus alprenolol hydrochloride. The protocol: In the next step, the alprenolol drivative of this invention was orally administered to dogs as experimental animals. The results described below were obtained by investigating the improving effect on bioavailability. Female beagle dogs (a body weight of about 10 kg) were used as the experimental animals. The 12 dogs were divided into 2 groups of 6 dogs and each group was alternately subjected to the experiment with intervals of 2 weeks. To the dogs, 2, 5, 10, 20 and 30 mg/kg of alprenolol hydrochloride 13.50 and 27.00 mg/kg of the compound (1) hydrochloride, (equivalent to 10, 20 mg/kg of the alprenolol hydrochloride, respectively) and 13.99 and 27.98 mg/kg of the compound (2) hydrochloride (equivalent to 10 and 20 mg/kg of alprenolol hydrochloride, respectively) were orally administered. Blood was collected respectively after 0.5, 1, 2, 4 and 6 hours. The plasma separated from the blood was extracted with ethanol. Plasma levels of the parent drug were determined by HPLC. The conditions for the HPLC analysis are shown as follows: |Column ODS 4.6.phi. × 250 mm |Flow rate 0.8 ml/min |Eluent CH3 CN:CH3 OH:50 mM KH2 PO4

The conditions of series [3]: cited from earlier work.

As for `C=CCc1ccccc1OCC(CNC(C)C)OC(=O)CCCC(=O)O` (centres unmarked) [(2), pentanedioic acid mono[1-{(2-allylphenoxy)methyl}-{2-(1-methylethyl)amino}ethyl]ester hydrochloride], in series [1], the half-life was 4.9 h and the 50% producing time of the parent drug (T' 1/2) came out at 5 h. For the same compound, in series [2], the “relationship between dose and AUC (area under the plasma concentration curve) (FIG. 14)” value is recorded as “linear relationships”; the “plasma concentration of the parent drug (FIG. 13)” value was “significantly high plasma concentration of the parent drug”.
On the same counts, the results for `C=CCc1ccccc1OCC(CNC(C)C)OC(=O)CCC(=O)O` (centres unmarked) [(1), Butanedioic acid mono[1-{(2-allylphenoxy)methyl}{2-(1-methylethyl)amino}ethyl]ester] are 7.4 h, 5 h, “linear relationships” and “significantly high plasma concentration of the parent drug”.
Turning to `C=CCc1ccccc1OCC(O)CNC(C)C` (centres unmarked) [alprenolol hydrochloride, reference compound], the “relationship between dose and AUC (area under the plasma concentration curve) (FIG. 14)” value in series [2] is “non-linear relationship with the threshold due to the first-pass effect”.
`C=CCc1ccccc1OCC(CNC(C)C)OC(=O)CCCC(=O)OCC` (centres unmarked) [(3), 4-Ethoxycarbonylbutanoic acid mono[1-{(2-allylphenoxy)methyl}-{2-(1-methylethyl)amino}ethyl]ester]: in series [1], the half-life was 1.3 h and the 50% producing time of the parent drug (T' 1/2) was found to be 2 h.
For `C=CCc1ccccc1OCC(O)CNC(C)C` (centres unmarked) [alprenolol], in series [3], the “bioavailability of alprenolol in the oral administration” value was 15%.
`C=CCc1ccccc1OCC(CNC(C)C)OC(=O)/C=C\C(=O)O` (centres unmarked) [(4), (z)-Butenedioic acid mono[1-{(2-allylphenoxy)methyl}-{2-(1-methylethyl)amino}ethyl]ester]: in series [1], the half-life is 0.9 h and the 50% producing time of the parent drug (T' 1/2) worked out at 3 h.
